One experiment deals with T1, JAK1 (Homo sapiens, UniProt P23458).
T1 construct: purchased Invitrogen
Put plainly: JAK1 enzyme inhibition test (LANCE method). The note with it: test compound 1 μM; read-out: Inhibitory rate (%) JAK1 1 μM. The format is biochemical. The procedure, abridged:
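TR-FRET (LANCE) kinase assay using JAK1 at 187.5 ng/mL, ULight-JAK1 peptide at 300 nM and ATP at 150 μM, given as solution concentrations before mixing. Buffer was 50 mM HEPES pH 7.5 with 10 mM MgCl2 and 2 mM DTT, and the reaction ran 1 h at room temperature. Eu anti-phosphotyrosine signal at 665 nm was expressed relative to a no-enzyme well, taken as 100% inhibition.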
On the technique in general: In TR-FRET formats the signal depends on donor and acceptor labels being close together.

The target in a further experiment is T2, Tyk2 (Homo sapiens, UniProt P29597).
T2 construct: purchased Invitrogen
Put plainly: Tyk2 enzyme inhibition test (LANCE method). The class given is biochemical. Particulars: test compound 1 μM; read-out: Inhibitory rate (%) Tyk2 1 μM. An outline of the steps: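 Recombinant Tyk2 (375 ng/mL stock) with ULight-JAK1 peptide (300 nM stock) and ATP (30 μM stock) in HEPES pH 7.5/MgCl2/EGTA/DTT buffer, 1 h at room temperature. Stopped with EDTA plus Eu-anti-phosphotyrosine antibody; TR-FRET read at 665 nm after 1 h. No-enzyme wells define 100% inhibition.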

T2 sequence (P29597 whole entry): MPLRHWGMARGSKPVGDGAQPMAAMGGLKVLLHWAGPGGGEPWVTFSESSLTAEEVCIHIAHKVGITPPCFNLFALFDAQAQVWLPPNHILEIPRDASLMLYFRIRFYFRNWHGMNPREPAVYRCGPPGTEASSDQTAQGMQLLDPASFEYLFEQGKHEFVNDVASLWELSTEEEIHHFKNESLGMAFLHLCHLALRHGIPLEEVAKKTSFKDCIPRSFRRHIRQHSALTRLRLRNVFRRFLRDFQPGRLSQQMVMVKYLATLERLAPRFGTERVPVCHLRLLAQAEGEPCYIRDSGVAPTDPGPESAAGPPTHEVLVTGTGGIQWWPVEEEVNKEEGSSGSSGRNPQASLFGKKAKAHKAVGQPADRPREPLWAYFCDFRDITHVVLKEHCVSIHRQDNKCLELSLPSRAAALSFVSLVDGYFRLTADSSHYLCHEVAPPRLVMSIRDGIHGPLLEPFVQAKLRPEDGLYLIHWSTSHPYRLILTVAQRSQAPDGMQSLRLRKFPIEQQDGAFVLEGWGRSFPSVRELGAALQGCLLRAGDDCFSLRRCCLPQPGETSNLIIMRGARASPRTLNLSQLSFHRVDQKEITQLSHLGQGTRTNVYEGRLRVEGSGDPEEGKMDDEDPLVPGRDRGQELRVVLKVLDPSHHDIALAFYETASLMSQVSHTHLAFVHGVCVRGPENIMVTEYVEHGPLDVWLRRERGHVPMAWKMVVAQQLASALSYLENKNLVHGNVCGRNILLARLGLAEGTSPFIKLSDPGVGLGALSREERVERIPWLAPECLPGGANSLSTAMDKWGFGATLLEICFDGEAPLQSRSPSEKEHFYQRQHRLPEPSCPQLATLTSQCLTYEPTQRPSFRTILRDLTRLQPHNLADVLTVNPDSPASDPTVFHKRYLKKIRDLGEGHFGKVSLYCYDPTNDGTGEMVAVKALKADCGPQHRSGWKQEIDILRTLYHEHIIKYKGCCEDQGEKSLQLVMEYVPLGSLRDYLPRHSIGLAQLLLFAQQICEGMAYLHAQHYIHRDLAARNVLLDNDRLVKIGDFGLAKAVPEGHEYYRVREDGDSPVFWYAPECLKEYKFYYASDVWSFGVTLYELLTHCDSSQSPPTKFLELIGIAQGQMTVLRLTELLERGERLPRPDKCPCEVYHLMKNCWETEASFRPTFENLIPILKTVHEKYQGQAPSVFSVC
T1 sequence (P23458 whole entry): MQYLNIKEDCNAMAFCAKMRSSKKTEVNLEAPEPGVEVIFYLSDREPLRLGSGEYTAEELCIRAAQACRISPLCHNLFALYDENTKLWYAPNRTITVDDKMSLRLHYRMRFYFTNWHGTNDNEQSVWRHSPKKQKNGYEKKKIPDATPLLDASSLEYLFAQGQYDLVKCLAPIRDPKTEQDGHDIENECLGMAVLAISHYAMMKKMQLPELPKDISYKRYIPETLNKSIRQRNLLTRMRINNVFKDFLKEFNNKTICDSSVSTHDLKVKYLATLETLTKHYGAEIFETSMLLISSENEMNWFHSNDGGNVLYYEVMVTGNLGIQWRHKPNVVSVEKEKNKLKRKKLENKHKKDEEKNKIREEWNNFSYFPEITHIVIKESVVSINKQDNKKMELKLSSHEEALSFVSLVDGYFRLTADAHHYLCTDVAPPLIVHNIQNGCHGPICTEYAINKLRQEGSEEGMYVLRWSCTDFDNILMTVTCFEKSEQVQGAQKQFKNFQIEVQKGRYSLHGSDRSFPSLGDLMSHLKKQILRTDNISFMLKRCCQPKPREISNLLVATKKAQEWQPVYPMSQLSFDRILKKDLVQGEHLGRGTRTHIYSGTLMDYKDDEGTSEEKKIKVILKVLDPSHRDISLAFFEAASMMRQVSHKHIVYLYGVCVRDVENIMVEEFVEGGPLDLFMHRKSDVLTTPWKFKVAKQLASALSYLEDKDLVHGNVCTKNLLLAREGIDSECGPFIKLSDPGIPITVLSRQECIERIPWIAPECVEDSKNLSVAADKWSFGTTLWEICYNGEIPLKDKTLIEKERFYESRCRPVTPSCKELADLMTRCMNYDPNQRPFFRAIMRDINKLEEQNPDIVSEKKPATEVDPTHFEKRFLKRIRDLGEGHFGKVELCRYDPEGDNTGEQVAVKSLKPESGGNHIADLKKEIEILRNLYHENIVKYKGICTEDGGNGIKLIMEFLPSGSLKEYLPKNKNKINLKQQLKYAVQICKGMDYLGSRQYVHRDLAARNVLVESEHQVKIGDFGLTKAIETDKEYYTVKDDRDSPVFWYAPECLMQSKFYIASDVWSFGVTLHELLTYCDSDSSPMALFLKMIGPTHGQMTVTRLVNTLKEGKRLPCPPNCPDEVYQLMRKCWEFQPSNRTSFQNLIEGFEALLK

Consider `CN(C)C(=O)c1cc(-c2cn(C3CCCC3)c3c(C#N)c[nH]c(=O)c23)cs1` [Example 107, 4-(7-cyano-1-cyclopentyl-4-oxo-4,5-dihydro-1H-pyrrolo[3,2-c]pyridin-3-yl)-N,N-dimethylthiophene-2-carboxamide], for which the figures for the inhibition at 1 µM at JAK1 and at Tyk2 were 96% and 98%, respectively.

Regarding `CNC(=O)c1cc(-c2cn(C3CCCC3)c3c(C#N)c[nH]c(=O)c23)cs1` [Example 108, 4-(7-cyano-1-cyclopentyl-4-oxo-4,5-dihydro-1H-pyrrolo[3,2-c]pyridin-3-yl)-N-methylthiophene-2-carboxamide], the inhibition at 1 µM was 99% on JAK1 and 100% on Tyk2.

In the case of `N#CCc1cccc(-c2cn(C3CCCC3)c3c(C#N)c[nH]c(=O)c23)c1` [Example 109, 3-(3-(cyanomethyl)phenyl)-1-cyclopentyl-4-oxo-4,5-dihydro-1H-pyrrolo[3,2-c]pyridine-7-carbonitrile], the figures for the inhibition at 1 µM at JAK1 and on Tyk2 were 61% and 94%, respectively.

On to `N#Cc1c[nH]c(=O)c2c(-c3cccc(CC(N)=O)c3)cn(C3CCCC3)c12` [Example 110, 2-(3-(7-cyano-1-cyclopentyl-4-oxo-4,5-dihydro-1H-pyrrolo[3,2-c]pyridin-3-yl)phenyl)acetamide], for which the results for the inhibition at 1 µM at JAK1 and at Tyk2 were 46% and 91%, respectively.

In the case of `N#Cc1c[nH]c(=O)c2c(-c3cn[nH]c3)cn(C3CCCC3)c12` [Example 111, 1-cyclopentyl-4-oxo-3-(1H-pyrazol-4-yl)-4,5-dihydro-1H-pyrrolo[3,2-c]pyridine-7-carbonitrile], the inhibition at 1 µM stood at 96% at JAK1 and 99% at Tyk2.

On to `NC(=O)Cc1ccc(-c2nn(-c3c(F)cccc3F)c3c(Br)c[nH]c(=O)c23)cc1` [Example 112, 2-(4-(7-bromo-1-(2,6-difluorophenyl)-4-oxo-4,5-dihydro-1H-pyrazolo[4,3-c]pyridin-3-yl)phenyl)acetamide], for which the inhibition at 1 µM was found to be 89% on JAK1 and 98% on Tyk2.

Take `NS(=O)(=O)c1ccc(-c2nn(CC3CCOC3)c3cc[nH]c(=O)c23)cc1` (stereo not drawn) [Example 115, 4-(4-oxo-1-(tetrahydrofuran-3-ylmethyl)-4,5-dihydro-1H-pyrazolo[4,3-c]pyridin-3-yl)benzenesulfonamide]: the inhibition at 1 µM is 87% on JAK1 and 66% on Tyk2.

On to `N#CCc1ccc(-c2nn(-c3c(F)cccc3F)c3c(Cl)c[nH]c(=O)c23)cc1` [Example 116, (4-(7-chloro-1-(2,6-difluorophenyl)-4-oxo-4,5-dihydro-1H-pyrazolo[4,3-c]pyridin-3-yl)phenyl)acetonitrile], for which the inhibition at 1 µM at JAK1 was 89%; at Tyk2, 99%.

Consider `NC(=O)c1cc(-n2nc(C3CCCC3)c3cc[nH]c(=O)c32)cs1` [Example 117, 4-(3-cyclopentyl-7-oxo-6,7-dihydro-1H-pyrazolo[3,4-c]pyridin-1-yl)thiophene-2-carboxamide], for which the inhibition at 1 µM on JAK1 is 99%; on Tyk2, 98%.

In the case of `N#Cc1c[nH]c(=O)c2c1c(C1CCCC1)cn2-c1csc(C(N)=O)c1` [Example 118, 4-(4-cyano-3-cyclopentyl-7-oxo-6,7-dihydro-1H-pyrrolo[2,3-c]pyridin-1-yl)thiophene-2-carboxamide], the values for the inhibition at 1 µM on JAK1 and on Tyk2 were 94% and 99%, respectively.

As to `NS(=O)(=O)c1ccc(-c2nn(C3CCC(O)CC3)c3cc[nH]c(=O)c23)cc1` (stereo not drawn) [Example 119, 4-(1-(4-hydroxycyclohexyl)-4-oxo-4,5-dihydro-1H-pyrazolo[4,3-c]pyridin-3-yl)benzenesulfonamide], the inhibition at 1 µM came out at 100% at JAK1 and 99% on Tyk2.

Turning to `N#Cc1c[nH]c(=O)c2c(-c3ccc(OCC(N)=O)cc3)cn(C3CCCC3)c12` [Example 120, 2-(4-(7-cyano-1-cyclopentyl-4-oxo-4,5-dihydro-1H-pyrrolo[3,2-c]pyridin-3-yl)phenoxy)acetamide], the inhibition at 1 µM was 88% on JAK1 and 98% on Tyk2.

Values taken from US9371320B2, “Heterocyclic compound” (TAKEDA PHARMACEUTICAL COMPANY LIMITED, priority 2012, dated 2016).
